Test results as given in ChEMBL document CHEMBL5120819, “Tanzawaic Acids from a Deep-Sea Derived Penicillium Species” (J Nat Prod, 2022).

What was measured:
Escherichia coli = experiment: […] activity against Escherichia coli ATCC 35218 assessed as reduction in microbial growth after 12 to 18 hrs by microbroth dilution method; type: functional; details: time 12-18 hrs
Candida albicans = experiment: Antifungal activity against Candida albicans ATCC 10231 assessed as reduction in microbial growth after 12 to 18 hrs by microbroth dilution method; type: functional; details: time 12-18 hrs
[1] = Cytotoxicity against human A549 cells assessed as reduction in cell viability at 13 uM by SRB assay relative to control; type: toxicity, cell-based; details: read-out: GI

| MIC (Escherichia coli) [µg/mL] | Structure (SMILES) | MIC (Candida albicans) [µg/mL] | inhibition at 13 µM [1] [%] |
| --- | --- | --- | --- |
| 10 | C[C@H]1C[C@@H](C)[C@@H]2[C@@H](/C=C/C=C/C(=O)O)[C@@H](C)C=C[C@H]2C1 | 20 |  |
|  | COc1ccc([C@@H]2SS[C@@]34C[C@]5(O)[C@H](O)C=C[C@@H](O)[C@@H]5ON3C(=O)[C@@H]2N(C)C4=O)c(O)c1OC | 30 |  |
|  | COc1ccc([C@@H]2SS[C@@]34C[C@]5(O)[C@H](OC(=O)/C=C/C=C/[C@@H]6[C@H]7[C@H](C)C[C@H](C)C[C@@H]7C=C[C@@H]6C)C=C[C@@H](O)[C@@H]5ON3C(=O)[C@@H]2N(C)C4=O)c(O)c1OC |  | 51.7 |
|  | COc1ccc([C@@H]2SS[C@@]34C[C@]5(O)[C@H](OC(=O)/C=C/C=C/c6c(C)ccc7c6[C@H](C)C[C@H](C)C7)C=C[C@@H](O)[C@@H]5ON3C(=O)[C@@H]2N(C)C4=O)c(O)c1OC |  | 90.7 |
